Where a name gives a salt, the structure may show the parent alone.
Assays:
HIV = settings: CD4+ cells, Fields, et al., Nature, Vol. 333, 19 May 1988, cited from earlier work
[1] = test system: Moloney murine leukemia virus (MoLV); assay: in vitro XC plaque assay (SC-1 cells infected with MoLV, XC cell overlay, plaques counted); assay type: cell-based; settings: compound added 2 hours before virus; for Mean No. of Foci: control 84 foci
Description: This assay was performed according to the method of Rowe et al. (Virology, 1970,42, 1136-39) as previously described by L. Hsu, et al. (J. Virological Methods, 1980, 1, 167-77) and T. L. Bowlin and M. R. Proffitt (J. Interferon Res., 1983, 3(1), 19-31). Mouse SC-1 cells (fibroblast) (10⁵) were seeded into each well of 6-well cluster plates (Costar #3506) in 4 ml Minimum Essential Medium (MEM) with 10% Fetal Calf Serum (FCS). Following an 18 hour incubation period (37°C), Moloney murine leukemia virus (MoLV) was applied at a predetermined titer to give optimal (i.e. countable) numbers of virus plaques. Compounds were added 2 hours prior to addition of the virus. Three days later the culture medium was removed, the SC-1 cell monolayers were exposed to UV irradiation (1800 ergs), and rat XC cells (10⁶) were seeded into each well in 4 ml MEM. Following an additional 3 day incubation (37°C), these cells were fixed with ethyl alcohol (95%) and stained with 0.3% crystal violet. Plaques were then counted under low magnification.

RF strain of HIV-1 = assay: p24 antigen expression from HIV infected T-lymphocytes (C8166 T cell line); assay type: cell-based; settings: C8166 cells; for p24 Antigen: 3 h pretreatment, culture fluid after 3 days
Description: Cells (C8166 T cell line) were pretreated with test compounds at appropriate concentrations for 3 hours prior to virus (RF strain of HIV-1) absorption. Low multiplicity of infection was used and virus absorption period was 1 hour at room temperature. the cells were washed X1 in PBS and resuspended in fresh medium containing the appropriate concentrations of test compound. Cells incubated at 37°C and after 3 days culture fluid was assayed for p24 antigen as a measure of viral replication. Because these compounds were insoluble in water as their free base, they had to be taken up in DMSO and therefore a series of DMSO virus controls were needed for comparison.

SMILES	HIV cell surface binding (HIV)	viral infectivity (HIV; accumulation of virus particles at the cell surface)	Mean No. of Foci ([1]; 0.10 µg/ml)	Mean No. of Foci ([1]; 1 µg/ml)	inhibition at 0.1 µg/mL ([1]; Murine leukemia virus, SC-1, 0.10 µg/ml)	inhibition at 1 µg/mL ([1]; Murine leukemia virus, SC-1, 1 µg/ml)	p24 Antigen (RF strain of HIV-1; 1 µg/ml, vehicle DMSO 0.01%, DMSO control 1027 pg/ml)	p24 Antigen (RF strain of HIV-1; 10 µg/ml, vehicle DMSO 0.1%, DMSO control 2408 pg/ml)	inhibition at 1 µg/mL (RF strain of HIV-1; Human immunodeficiency virus 1, 72 h, 1 µg/ml, vehicle DMSO 0.01%, 3 days)	inhibition at 10 µg/mL (RF strain of HIV-1; Human immunodeficiency virus 1, 72 h, 10 µg/ml, vehicle DMSO 0.1%, 3 days)
CC1CNCCN1S(=O)(=O)c1cccc2cnccc12 (stereo not shown) [1,5-isoquinolinesulphonyl-2-methylpiperazine dihydrochloride]	does not interfere with HIV cell surface binding	inhibition of viral infectivity	–	–	–	–	–	–	–	–
CCCc1[nH]c(=O)oc1-c1ccnc2ccccc12 [Test Compound, 4-propyl-5-(4-quinolinyl)-2(3H)-oxazolone]	–	–	84	10	0%	88.1%	745 pg/mL	710 pg/mL	28%	71%

Source: patent publication EP0428105A2, “Use of quinolyl- and isoquinolyloxazole-2-ones for the production of a medicament for the prevention of glycoprotein enveloped virus infectivity” (MERRELL DOW PHARMACEUTICALS INC., priority 1989, dated 1991)
